Reference: PubChem BioAssay (NCI)
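Cultured in 96-well plates, cells were exposed to test compound for 48 hours across five concentrations. The concentration for full growth arrest is given as TGI.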

Experiments:
Test in all cases: NCI anticancer screen, dose series, 48 h
CCRF-CEM leukemia = test system: CCRF-CEM leukemia
SK-MEL-5 melanoma = test system: SK-MEL-5 melanoma
MDA-MB-231 breast = test system: MDA-MB-231 breast
SR leukemia = test system: SR leukemia
NCI-H226 lung = test system: NCI-H226 lung
RXF 393 renal = test system: RXF 393 renal
SN12C renal = test system: SN12C renal
SF-295 CNS = test system: SF-295 CNS
MALME-3M melanoma = test system: MALME-3M melanoma
MOLT-4 leukemia = test system: MOLT-4 leukemia
SNB-75 CNS = test system: SNB-75 CNS
SK-MEL-28 melanoma = test system: SK-MEL-28 melanoma
NCI-H23 lung = test system: NCI-H23 lung
M14 melanoma = test system: M14 melanoma
IGROV1 ovarian = test system: IGROV1 ovarian
T-47D breast = test system: T-47D breast
HCC-2998 colon = test system: HCC-2998 colon
HOP-62 NSCLC = test system: HOP-62 NSCLC
A498 renal = test system: A498 renal
HCT-15 colon = test system: HCT-15 colon
SNB-19 CNS = test system: SNB-19 CNS
HL-60(TB) leukemia = test system: HL-60(TB) leukemia
ACHN renal = test system: ACHN renal
BT-549 breast = test system: BT-549 breast
HT29 colon = test system: HT29 colon
OVCAR-8 ovarian = test system: OVCAR-8 ovarian
OVCAR-4 ovarian = test system: OVCAR-4 ovarian
MCF7 breast = test system: MCF7 breast
LOX IMVI melanoma = test system: LOX IMVI melanoma
OVCAR-5 ovarian = test system: OVCAR-5 ovarian
MDA-MB-435 = test system: MDA-MB-435
RPMI-8226 leukemia = test system: RPMI-8226 leukemia
A549 NSCLC = test system: A549 NSCLC
EKVX NSCLC = test system: EKVX NSCLC
NCI/ADR-RES ovarian = test system: NCI/ADR-RES ovarian
U251 CNS = test system: U251 CNS
CAKI-1 renal = test system: CAKI-1 renal
HOP-92 NSCLC = test system: HOP-92 NSCLC
SF-268 CNS = test system: SF-268 CNS
HCT-116 colon = test system: HCT-116 colon
TK-10 renal = test system: TK-10 renal
UACC-62 melanoma = test system: UACC-62 melanoma
SW-620 colon = test system: SW-620 colon
SK-MEL-2 melanoma = test system: SK-MEL-2 melanoma
K-562 leukemia = test system: K-562 leukemia
OVCAR-3 ovarian = test system: OVCAR-3 ovarian
COLO 205 colon = test system: COLO 205 colon
DU-145 prostate = test system: DU-145 prostate
NCI-H522 lung = test system: NCI-H522 lung
UO-31 renal = test system: UO-31 renal
786-0 renal = test system: 786-0 renal
PC-3 prostate = test system: PC-3 prostate
KM12 colon = test system: KM12 colon
HS 578T breast = test system: HS 578T breast
NCI-H460 lung = test system: NCI-H460 lung
UACC-257 melanoma = test system: UACC-257 melanoma
SF-539 CNS = test system: SF-539 CNS
MDA-N = test system: MDA-N
SK-OV-3 ovarian = test system: SK-OV-3 ovarian

Nc1ccc2c(c1)C(=O)c1ccccc1-2
TGI (CCRF-CEM leukemia): > 100 µM
TGI (SK-MEL-5 melanoma): > 100 µM
TGI (MDA-MB-231 breast): > 100 µM
TGI (SR leukemia): > 100 µM
TGI (NCI-H226 lung): > 100 µM
TGI (RXF 393 renal): > 100 µM
TGI (SN12C renal): > 100 µM
TGI (SF-295 CNS): > 100 µM
TGI (MALME-3M melanoma): > 100 µM
TGI (MOLT-4 leukemia): 75.1 µM
TGI (SNB-75 CNS): > 100 µM
TGI (SK-MEL-28 melanoma): > 100 µM
TGI (NCI-H23 lung): > 100 µM
TGI (M14 melanoma): > 100 µM
TGI (IGROV1 ovarian): > 100 µM
TGI (T-47D breast): > 100 µM
TGI (HCC-2998 colon): > 100 µM
TGI (HOP-62 NSCLC): > 100 µM
TGI (A498 renal): > 100 µM
TGI (HCT-15 colon): > 100 µM
TGI (SNB-19 CNS): > 100 µM
TGI (HL-60(TB) leukemia): > 100 µM
TGI (ACHN renal): > 100 µM
TGI (BT-549 breast): 83.5 µM
TGI (HT29 colon): > 100 µM
TGI (OVCAR-8 ovarian): > 100 µM
TGI (OVCAR-4 ovarian): > 100 µM
TGI (MCF7 breast): > 100 µM
TGI (LOX IMVI melanoma): > 100 µM
TGI (OVCAR-5 ovarian): > 100 µM
TGI (MDA-MB-435): > 100 µM
TGI (RPMI-8226 leukemia): > 100 µM
TGI (A549 NSCLC): > 100 µM
TGI (EKVX NSCLC): > 100 µM
TGI (NCI/ADR-RES ovarian): > 100 µM
TGI (U251 CNS): > 100 µM
TGI (CAKI-1 renal): > 100 µM
TGI (HOP-92 NSCLC): 91 µM
TGI (SF-268 CNS): > 100 µM
TGI (HCT-116 colon): > 100 µM
TGI (TK-10 renal): > 100 µM
TGI (UACC-62 melanoma): > 100 µM
TGI (SW-620 colon): > 100 µM
TGI (SK-MEL-2 melanoma): > 100 µM
TGI (K-562 leukemia): > 100 µM
TGI (OVCAR-3 ovarian): > 100 µM
TGI (COLO 205 colon): > 100 µM
TGI (DU-145 prostate): > 100 µM
TGI (NCI-H522 lung): > 100 µM
TGI (UO-31 renal): > 100 µM
TGI (786-0 renal): > 100 µM
TGI (PC-3 prostate): > 100 µM
TGI (KM12 colon): > 100 µM
TGI (HS 578T breast): > 100 µM
TGI (NCI-H460 lung): > 100 µM
TGI (UACC-257 melanoma): > 100 µM
TGI (SF-539 CNS): > 100 µM

CS(=O)(=O)OCCN1CCC2(CC1)SSC1(CCN(CCOS(C)(=O)=O)CC1)S2
TGI (SK-MEL-5 melanoma): > 100 µM
TGI (MDA-MB-231 breast): > 100 µM
TGI (SR leukemia): 65.9 µM
TGI (SN12C renal): > 100 µM
TGI (SF-295 CNS): > 100 µM
TGI (MALME-3M melanoma): 68.1 µM
TGI (MOLT-4 leukemia): > 100 µM
TGI (SNB-75 CNS): > 100 µM
TGI (SK-MEL-28 melanoma): > 100 µM
TGI (NCI-H23 lung): > 100 µM
TGI (M14 melanoma): > 100 µM
TGI (IGROV1 ovarian): > 100 µM
TGI (HOP-62 NSCLC): > 100 µM
TGI (A498 renal): 56.1 µM
TGI (HCT-15 colon): > 100 µM
TGI (SNB-19 CNS): > 100 µM
TGI (HL-60(TB) leukemia): 59.7 µM
TGI (ACHN renal): > 100 µM
TGI (BT-549 breast): > 100 µM
TGI (HT29 colon): > 100 µM
TGI (OVCAR-8 ovarian): > 100 µM
TGI (OVCAR-4 ovarian): > 100 µM
TGI (MCF7 breast): 44.9 µM
TGI (LOX IMVI melanoma): 97.8 µM
TGI (OVCAR-5 ovarian): 93.2 µM
TGI (MDA-MB-435): > 100 µM
TGI (RPMI-8226 leukemia): 29.6 µM
TGI (A549 NSCLC): > 100 µM
TGI (NCI/ADR-RES ovarian): > 100 µM
TGI (U251 CNS): > 100 µM
TGI (MDA-N): > 100 µM
TGI (CAKI-1 renal): 44.9 µM
TGI (SF-268 CNS): 58.1 µM
TGI (HCT-116 colon): > 100 µM
TGI (TK-10 renal): 55.8 µM
TGI (UACC-62 melanoma): > 100 µM
TGI (SW-620 colon): > 100 µM
TGI (SK-MEL-2 melanoma): > 100 µM
TGI (SK-OV-3 ovarian): > 100 µM
TGI (K-562 leukemia): > 100 µM
TGI (OVCAR-3 ovarian): 99.7 µM
TGI (COLO 205 colon): > 100 µM
TGI (UO-31 renal): > 100 µM
TGI (786-0 renal): > 100 µM
TGI (PC-3 prostate): > 100 µM
TGI (KM12 colon): > 100 µM
TGI (HS 578T breast): > 100 µM
TGI (NCI-H460 lung): > 100 µM
TGI (UACC-257 melanoma): > 100 µM
TGI (SF-539 CNS): > 100 µM
